The values that follow come from patent publication US20260109708A1, “COMPOUNDS AND COMPOSITIONS USEFUL AS DEGRADERS OF MK2 KINASE” (Celgene Corporation, priority 2023, published 2026).

The structures appear in SMILES notation. pIC50: −log10 of the molar value.

T1 sequence (P49137 whole entry): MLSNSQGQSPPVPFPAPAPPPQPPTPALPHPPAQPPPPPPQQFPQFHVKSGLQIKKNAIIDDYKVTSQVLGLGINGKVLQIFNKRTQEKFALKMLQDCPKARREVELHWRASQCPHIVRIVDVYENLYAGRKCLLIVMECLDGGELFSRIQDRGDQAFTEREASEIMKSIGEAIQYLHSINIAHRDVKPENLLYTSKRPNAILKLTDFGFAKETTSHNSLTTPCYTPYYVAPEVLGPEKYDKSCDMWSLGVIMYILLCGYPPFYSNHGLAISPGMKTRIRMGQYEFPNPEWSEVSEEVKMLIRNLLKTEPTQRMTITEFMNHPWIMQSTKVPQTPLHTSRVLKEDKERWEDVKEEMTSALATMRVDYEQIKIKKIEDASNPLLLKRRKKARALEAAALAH

The experiment has as its target T1, p38a activated, mitogen-activated protein kinase-activated protein kinase 2 (MAPKAP-K2 or MK2) enzyme (Homo sapiens, UniProt P49137).
T1 construct: purchased Invitrogen PV3317
The experiment is described as follows: MK2 OMNIA biochemical assay (AssayQuant continuous-read kinase assay). Particulars: [MK-2]=0.05 nM, [ATP]=100 μM, [AQT0425]=10 μM. An outline of the steps: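 Continuous fluorescence read (ex 360/em 485) of p38a-activated MK2 phosphorylating Sox-conjugated peptide AQT0425 in 50 mM HEPES pH 7.5, 10 mM MgCl2, 1 mM DTT; reads every 71 s for 240 min at room temperature. IC50 from initial linear slopes; apparent Kinact from single-exponential Vobs fits.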
As usually defined, the pIC50 is −log10 of the IC50, conventionally taken in molar units. For `C[C@@H]1CNc2c(sc3ccc4nc(-c5cccc(N6CCN(CCN7CCN(c8ccc9c(C%10CCC(=O)NC%10=O)nn(C)c9c8)CC7)CC6)c5)ccc4c23)C(=O)N1` (stereo partly drawn) [Ex 12, 3-(1-Methyl-6-(4-(2-(4-(3-((R)-10-methyl-8-oxo-9,10,11,12-tetrahydro-8H-[1,4]diazepino[5′,6′:4,5]thieno[3,2-f]quinolin-3-yl)phenyl)piperazin-1-yl)ethyl)piperazin-1-yl)-1H-indazol-3-yl)piperidine-2,6-dione], the pIC50 is more than 6.82.
Next, `C[C@@H]1CNc2c(sc3ccc4nc(-c5cnn(C6CCN(CCN7CCN(c8ccc9c(C%10CCC(=O)NC%10=O)nn(C)c9c8)CC7)CC6)c5)ccc4c23)C(=O)N1` (stereo partly drawn) [Ex 44, 3-(1-Methyl-6-(4-(2-(4-(4-((R)-10-methyl-8-oxo-9,10,11,12-tetrahydro-8H-[1,4]diazepino[5′,6′:4,5]thieno[3,2-f]quinolin-3-yl)-1H-pyrazol-1-yl)piperidin-1-yl)ethyl)piperazin-1-yl)-1H-indazol-3-yl)piperidine-2,6-dione]: more than 6.82.
As to `C[C@@H]1CNc2c(sc3ccc4nc(-c5ccc(N6CCN(CCN7CCN(c8ccc9c(C%10CCC(=O)NC%10=O)nn(C)c9c8)CC7)CC6)cc5)ccc4c23)C(=O)N1` (stereo partly drawn) [Ex 21, 3-(1-Methyl-6-(4-(2-(4-(4-((R)-10-methyl-8-oxo-9,10,11,12-tetrahydro-8H-[1,4]diazepino[5′,6′:4,5]thieno[3,2-f]quinolin-3-yl)phenyl)piperazin-1-yl)ethyl)piperazin-1-yl)-1H-indazol-3-yl)piperidine-2,6-dione], the negative logarithm of the IC50 (pIC50) was 6.30 to 6.82.
The same measure for `C[C@@H]1CNc2c(sc3ccc4nc(-c5cn(C6CCN(CCN7CCN(c8ccc9c(C%10CCC(=O)NC%10=O)nn(C)c9c8)CC7)CC6)nn5)ccc4c23)C(=O)N1` (stereo partly drawn) [Ex 50, 3-(1-Methyl-6-(4-(2-(4-(4-((R)-10-methyl-8-oxo-9,10,11,12-tetrahydro-8H-[1,4]diazepino[5′,6′:4,5]thieno[3,2-f]quinolin-3-yl)-1H-1,2,3-triazol-1-yl)piperidin-1-yl)ethyl)piperazin-1-yl)-1H-indazol-3-yl)piperidine-2,6-dione]: more than 6.82.
